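Where inhibition never reached the appropriate level, the endpoint shown equals the highest concentration tested. Otherwise, values were interpolated linearly from a five-concentration, 48-hour dose response in 96-well plates. The concentration for full growth arrest is given as TGI.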
Columns and labels:
Experiment in all cases: inhibition of tumour cell growth, NCI panel, 48 h
786-0 renal = tested on: 786-0 renal
A549 NSCLC = tested on: A549 NSCLC
ACHN renal = tested on: ACHN renal
BT-549 breast = tested on: BT-549 breast
CAKI-1 renal = tested on: CAKI-1 renal
CCRF-CEM leukemia = tested on: CCRF-CEM leukemia
COLO 205 colon = tested on: COLO 205 colon
DU-145 prostate = tested on: DU-145 prostate
EKVX NSCLC = tested on: EKVX NSCLC
HCC-2998 colon = tested on: HCC-2998 colon
HCT-116 colon = tested on: HCT-116 colon
HCT-15 colon = tested on: HCT-15 colon
HL-60(TB) leukemia = tested on: HL-60(TB) leukemia
HOP-62 NSCLC = tested on: HOP-62 NSCLC
HS 578T breast = tested on: HS 578T breast
HT29 colon = tested on: HT29 colon
IGROV1 ovarian = tested on: IGROV1 ovarian
K-562 leukemia = tested on: K-562 leukemia
KM12 colon = tested on: KM12 colon
LOX IMVI melanoma = tested on: LOX IMVI melanoma
M14 melanoma = tested on: M14 melanoma
MALME-3M melanoma = tested on: MALME-3M melanoma
MCF7 breast = tested on: MCF7 breast
MDA-MB-435 = tested on: MDA-MB-435
MDA-N = tested on: MDA-N
MOLT-4 leukemia = tested on: MOLT-4 leukemia
NCI-H226 lung = tested on: NCI-H226 lung
NCI-H23 lung = tested on: NCI-H23 lung
NCI-H460 lung = tested on: NCI-H460 lung
NCI-H522 lung = tested on: NCI-H522 lung
NCI/ADR-RES ovarian = tested on: NCI/ADR-RES ovarian
OVCAR-3 ovarian = tested on: OVCAR-3 ovarian
OVCAR-4 ovarian = tested on: OVCAR-4 ovarian
OVCAR-5 ovarian = tested on: OVCAR-5 ovarian
OVCAR-8 ovarian = tested on: OVCAR-8 ovarian
PC-3 prostate = tested on: PC-3 prostate
RPMI-8226 leukemia = tested on: RPMI-8226 leukemia
SF-268 CNS = tested on: SF-268 CNS
SF-295 CNS = tested on: SF-295 CNS
SF-539 CNS = tested on: SF-539 CNS
SK-MEL-2 melanoma = tested on: SK-MEL-2 melanoma
SK-MEL-28 melanoma = tested on: SK-MEL-28 melanoma
SK-MEL-5 melanoma = tested on: SK-MEL-5 melanoma
SK-OV-3 ovarian = tested on: SK-OV-3 ovarian
SN12C renal = tested on: SN12C renal
SNB-19 CNS = tested on: SNB-19 CNS
SNB-75 CNS = tested on: SNB-75 CNS
SR leukemia = tested on: SR leukemia
SW-620 colon = tested on: SW-620 colon
T-47D breast = tested on: T-47D breast
TK-10 renal = tested on: TK-10 renal
U251 CNS = tested on: U251 CNS
UACC-257 melanoma = tested on: UACC-257 melanoma
UACC-62 melanoma = tested on: UACC-62 melanoma
UO-31 renal = tested on: UO-31 renal
A498 renal = tested on: A498 renal
MDA-MB-231 breast = tested on: MDA-MB-231 breast
RXF 393 renal = tested on: RXF 393 renal

Which TGI (786-0 renal) does the source give for O=C(CCCn1ccnc1[N+](=O)[O-])NCCn1ccnc1[N+](=O)[O-] here?
The TGI was over 100 µM.

And the TGI (A549 NSCLC)?
Its TGI is over 100 µM.

And the TGI (ACHN renal)?
Its TGI is over 100 µM.

And the TGI (BT-549 breast)?
Its TGI is over 100 µM.

And the TGI (CAKI-1 renal)?
The TGI was over 100 µM.

What about the TGI (CCRF-CEM leukemia) of the same compound?
The TGI was over 100 µM.

And the TGI (COLO 205 colon)?
Its TGI is over 100 µM.

What about the TGI (DU-145 prostate) of the same compound?
Its TGI is over 100 µM.

And the TGI (EKVX NSCLC)?
Its TGI is over 100 µM.

And the TGI (HCC-2998 colon)?
Its TGI is over 100 µM.

And the TGI (HCT-116 colon)?
The TGI was over 100 µM.

What about the TGI (HCT-15 colon) of the same compound?
Its TGI is over 100 µM.

And the TGI (HL-60(TB) leukemia)?
The TGI was over 100 µM.

And the TGI (HOP-62 NSCLC)?
The TGI was over 100 µM.

And the TGI (HS 578T breast)?
Its TGI is over 100 µM.

What about the TGI (HT29 colon) of the same compound?
The TGI was over 100 µM.

What about the TGI (IGROV1 ovarian) of the same compound?
Its TGI is over 100 µM.

And the TGI (K-562 leukemia)?
The TGI was over 100 µM.

And the TGI (KM12 colon)?
The TGI was over 100 µM.

And the TGI (LOX IMVI melanoma)?
The TGI was over 100 µM.

And the TGI (M14 melanoma)?
Its TGI is over 100 µM.

And the TGI (MALME-3M melanoma)?
The TGI was over 100 µM.

What about the TGI (MCF7 breast) of the same compound?
The TGI was over 100 µM.

And the TGI (MDA-MB-435)?
The TGI was over 100 µM.

What about the TGI (MDA-N) of the same compound?
Its TGI is over 100 µM.

And the TGI (MOLT-4 leukemia)?
The TGI was over 100 µM.

What about the TGI (NCI-H226 lung) of the same compound?
The TGI was over 100 µM.

What about the TGI (NCI-H23 lung) of the same compound?
The TGI was over 100 µM.

What about the TGI (NCI-H460 lung) of the same compound?
Its TGI is over 100 µM.

And the TGI (NCI-H522 lung)?
The TGI was over 100 µM.

What about the TGI (NCI/ADR-RES ovarian) of the same compound?
The TGI was over 100 µM.

What about the TGI (OVCAR-3 ovarian) of the same compound?
The TGI was over 100 µM.

What about the TGI (OVCAR-4 ovarian) of the same compound?
The TGI was over 100 µM.

What about the TGI (OVCAR-5 ovarian) of the same compound?
The TGI was over 100 µM.

What about the TGI (OVCAR-8 ovarian) of the same compound?
Its TGI is over 100 µM.

And the TGI (PC-3 prostate)?
The TGI was over 100 µM.

What about the TGI (RPMI-8226 leukemia) of the same compound?
The TGI was over 100 µM.

And the TGI (SF-268 CNS)?
Its TGI is over 100 µM.

What about the TGI (SF-295 CNS) of the same compound?
Its TGI is over 100 µM.

What about the TGI (SF-539 CNS) of the same compound?
The TGI was over 100 µM.

And the TGI (SK-MEL-2 melanoma)?
The TGI was over 100 µM.

What about the TGI (SK-MEL-28 melanoma) of the same compound?
Its TGI is over 100 µM.

What about the TGI (SK-MEL-5 melanoma) of the same compound?
The TGI was over 100 µM.

What about the TGI (SK-OV-3 ovarian) of the same compound?
The TGI was over 100 µM.

What about the TGI (SN12C renal) of the same compound?
Its TGI is over 100 µM.

What about the TGI (SNB-19 CNS) of the same compound?
The TGI was over 100 µM.

And the TGI (SNB-75 CNS)?
Its TGI is over 100 µM.

What about the TGI (SR leukemia) of the same compound?
The TGI was over 100 µM.

And the TGI (SW-620 colon)?
Its TGI is over 100 µM.

And the TGI (T-47D breast)?
Its TGI is over 100 µM.

What about the TGI (TK-10 renal) of the same compound?
The TGI was over 100 µM.

And the TGI (U251 CNS)?
Its TGI is over 100 µM.

And the TGI (UACC-257 melanoma)?
Its TGI is over 100 µM.

And the TGI (UACC-62 melanoma)?
The TGI was over 100 µM.

And the TGI (UO-31 renal)?
The TGI was over 100 µM.

Which TGI (786-0 renal) does the source give for O=[N+]([O-])c1ccc(N=Nc2c(O)[nH]c3ccccc23)cc1 here?
The TGI was 61.7 µM.

And the TGI (A498 renal)?
The TGI was 39.5 µM.

What about the TGI (A549 NSCLC) of the same compound?
Its TGI is over 100 µM.

What about the TGI (ACHN renal) of the same compound?
The TGI was 26.3 µM.

What about the TGI (BT-549 breast) of the same compound?
Its TGI is 71.3 µM.

And the TGI (CAKI-1 renal)?
Its TGI is 40.4 µM.

And the TGI (CCRF-CEM leukemia)?
Its TGI is over 80.1 µM.

And the TGI (COLO 205 colon)?
Its TGI is over 100 µM.

And the TGI (DU-145 prostate)?
Its TGI is 36.4 µM.

What about the TGI (EKVX NSCLC) of the same compound?
The TGI was over 72.1 µM.

And the TGI (HCC-2998 colon)?
The TGI was over 100 µM.

What about the TGI (HCT-116 colon) of the same compound?
Its TGI is over 96.4 µM.

And the TGI (HCT-15 colon)?
Its TGI is over 100 µM.

What about the TGI (HL-60(TB) leukemia) of the same compound?
Its TGI is over 77.8 µM.

And the TGI (HOP-62 NSCLC)?
The TGI was 34 µM.

What about the TGI (HS 578T breast) of the same compound?
The TGI was 51.6 µM.

What about the TGI (HT29 colon) of the same compound?
The TGI was over 100 µM.

And the TGI (IGROV1 ovarian)?
The TGI was 41.4 µM.

And the TGI (K-562 leukemia)?
Its TGI is over 84.6 µM.

And the TGI (KM12 colon)?
Its TGI is over 100 µM.

What about the TGI (LOX IMVI melanoma) of the same compound?
Its TGI is over 96.3 µM.

What about the TGI (M14 melanoma) of the same compound?
The TGI was over 100 µM.

What about the TGI (MALME-3M melanoma) of the same compound?
Its TGI is 45.2 µM.

What about the TGI (MCF7 breast) of the same compound?
Its TGI is over 100 µM.

And the TGI (MDA-MB-231 breast)?
Its TGI is over 58.9 µM.

What about the TGI (MDA-MB-435) of the same compound?
The TGI was over 100 µM.

What about the TGI (MDA-N) of the same compound?
The TGI was over 100 µM.

What about the TGI (MOLT-4 leukemia) of the same compound?
The TGI was over 100 µM.

And the TGI (NCI-H226 lung)?
The TGI was 51.5 µM.

And the TGI (NCI-H23 lung)?
Its TGI is over 100 µM.

And the TGI (NCI-H460 lung)?
The TGI was over 100 µM.

And the TGI (NCI-H522 lung)?
The TGI was 34.6 µM.

And the TGI (NCI/ADR-RES ovarian)?
Its TGI is 48.5 µM.

And the TGI (OVCAR-3 ovarian)?
The TGI was 35.2 µM.

What about the TGI (OVCAR-4 ovarian) of the same compound?
Its TGI is 57.6 µM.

And the TGI (OVCAR-5 ovarian)?
The TGI was over 63.1 µM.

What about the TGI (OVCAR-8 ovarian) of the same compound?
Its TGI is 48.3 µM.

What about the TGI (PC-3 prostate) of the same compound?
The TGI was over 100 µM.

And the TGI (RPMI-8226 leukemia)?
The TGI was over 100 µM.

And the TGI (RXF 393 renal)?
Its TGI is 35.4 µM.

What about the TGI (SF-268 CNS) of the same compound?
Its TGI is 58.7 µM.

What about the TGI (SF-295 CNS) of the same compound?
The TGI was 48.7 µM.

And the TGI (SF-539 CNS)?
Its TGI is 9.36 µM.

What about the TGI (SK-MEL-2 melanoma) of the same compound?
The TGI was over 100 µM.

And the TGI (SK-MEL-28 melanoma)?
Its TGI is over 100 µM.

What about the TGI (SK-MEL-5 melanoma) of the same compound?
The TGI was over 77.3 µM.

And the TGI (SK-OV-3 ovarian)?
The TGI was 65.3 µM.

What about the TGI (SN12C renal) of the same compound?
Its TGI is over 100 µM.

What about the TGI (SNB-19 CNS) of the same compound?
The TGI was over 100 µM.

What about the TGI (SNB-75 CNS) of the same compound?
The TGI was 42.6 µM.

And the TGI (SR leukemia)?
Its TGI is 45.9 µM.

What about the TGI (SW-620 colon) of the same compound?
The TGI was over 100 µM.

What about the TGI (T-47D breast) of the same compound?
Its TGI is 35.8 µM.

What about the TGI (TK-10 renal) of the same compound?
Its TGI is over 51.2 µM.

And the TGI (U251 CNS)?
The TGI was over 100 µM.

And the TGI (UACC-257 melanoma)?
The TGI was over 60.1 µM.

And the TGI (UACC-62 melanoma)?
The TGI was over 100 µM.

And the TGI (UO-31 renal)?
The TGI was 39.3 µM.
